Structures can show the parent of a compound that is named as a salt.
Test system: mice
Assay: Tail Suspension Test in Mice (TST)
Assay type: in vivo
Settings: Mus musculus, reduction in immobility vs control group, 1 mg/kg, po
Description: Tail Suspension Test in mice is the well-known animal model to determine antidepressant efficacy of compounds by checking escaping behavior and immobility time of mice. Mice treated with antidepressant drug show escaping behavior continuously comparing with control group.
The mice were mainly treated orally with the test compound dissolved in 30% PEG400 or with only 30% PEG400 as control. Tail of mouse is suspended to the rod of TST equipment and end of tail is fixed with sticky tape. Suspended mouse is incubated during 2 min for training and adaptation and after following 2 min, observe escaping behavior and check immobility time for 4 min. The potent ability of the compounds was determined as percent value of reduction in immobility comparing to control group as 100% baseline.

| Compound | inhibition in vivo at 1 mg/kg [%] |
| --- | --- |
| COc1ccccc1N1CCN(CCCCOc2cccc(Cn3ncnn3)c2)CC1 [Example 8, 1-(2-methoxy-phenyl)-4-[4-(3-tetrazol-2-ylmethyl-phenoxy)-butyl]-piperazine hydrochloride] | 19.6 |
| COc1ccccc1N1CCN(CCCCOc2ccc(Cn3nnnc3C)cc2)CC1 [Example 18, 1-(2-methoxy-phenyl)-4-{4-[4-(5-methyl-tetrazol-1-ylmethyl)-phenoxy]-butyl}-piperazine] | 14.7 |

Same assay, conditions: reduction in immobility vs control group, 30 mg/kg, po

| Compound | % reduction |
| --- | --- |
| CN(C)CCC[C@@]1(c2ccc(F)cc2)OCc2cc(C#N)ccc21 [Estalopram, reference compound] | 47, at 30 mg/kg, po % |
| CNCCC(Oc1ccc(C(F)(F)F)cc1)c1ccccc1 (stereo not shown) [Fluxetine, reference compound] | 49. at 30 mg/kg, po % |

Molecular target: T1, Serotonin 1A (5-HT1A) receptor (Rattus norvegicus, UniProt P19327)
T1 construct: The cortex tissue were homogenized in 30 volumes of ice-cold 50 mM Tris-HCl buffer; from tissue; host or cells: Sprague-Dawley rat brain cortex membranes
T1 sequence (P19327 1-422): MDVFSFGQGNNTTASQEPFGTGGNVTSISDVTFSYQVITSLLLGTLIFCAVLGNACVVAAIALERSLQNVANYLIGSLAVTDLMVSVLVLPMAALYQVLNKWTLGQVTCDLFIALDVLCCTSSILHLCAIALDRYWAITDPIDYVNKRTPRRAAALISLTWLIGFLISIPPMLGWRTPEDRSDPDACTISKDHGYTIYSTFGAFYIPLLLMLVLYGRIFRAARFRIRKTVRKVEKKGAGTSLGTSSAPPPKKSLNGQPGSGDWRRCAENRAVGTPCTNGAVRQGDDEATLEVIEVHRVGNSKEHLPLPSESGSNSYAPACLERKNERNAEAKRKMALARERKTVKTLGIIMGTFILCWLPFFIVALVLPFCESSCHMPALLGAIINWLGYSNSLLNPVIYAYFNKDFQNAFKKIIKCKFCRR
Assay: Serotonin 1A (5-HT1A) receptor inhibition assay, [3H]8-OH-DPAT binding to rat cortex membranes
Parameters: species or system Sprague-Dawley (SD) rats
Settings: 10 nM test compound; 0.92 nM [3H]8-OH-DPAT; rat cortex homogenate; 60 min at 25° C.
Experimental: The method to test the ability of compounds to inhibit serotonin 1A(5-HT1A) receptors was using Hall. et al., J Neuro Chem., 1985, 44, p 1685-1696 with modification.
The Sprague-Dawley (SD) rats were killed by decapitation and their brains rapidly removed at 4° C. The cortex tissue were homogenized in 30 volumes of ice-cold 50 mM Tris-HCl buffer (pH7.4) using an ultra-turrax T8 and centrifuged at 48,000 g for 20 min. The supernatant was discarded and the pellet washed twice by resuspension in 20 volumes Tris-HCl and centrifugation, homogenized in 20 volumes Tris-HCl, and incubated at 37° C. for 10 min. Membranes were than collected by centrifugation and washed twice before final resuspension in 10 volumes of 50 mM Tris-HCl, pH7.4.
For binding assays, the incubation medium consisted of 162.5 ug of tissue homogenate, 0.92 nM of [3H]8-OH-DPAT and vehicle or 10 uM of 5-HT or 10 nM of test compounds per well. 5-HT and test compounds were dissolved in distilled water and incubation medium was 50 mM Tris(pH7.4 at room temperature). The assay plates (96 well) were incubated for 60 min at 25° C. The reaction was terminated by rapid filtration using a Tomtec harvester, through GF/C glassfibre filter with 5 times washes of Tris buffer. The radioactivity retained on the filters was counted by scintillation spectroscopy (MicroBeta TriLux, Wallac). The tests were triplicates. Percent inhibition was calculated as below equation.
Total binding is the value of vehicle treated group and specific binding is the values that deduct non-specific binding (i.e. the value of non-specific ligand, 5-HT).

| Compound | inhibition at 0.01 µM [%] |
| --- | --- |
| COc1ccccc1N1CCN(CCCCOc2ccc(Cn3cnnn3)cc2)CC1 [Example 3, 1-(2-methoxy-phenyl)-4-[4-(4-tetrazol-1-ylmethyl-phenoxy)-butyl]-piperazine] | 77.8 |
| COc1ccccc1N1CCN(CCCCOc2ccc(Cn3ncnn3)cc2)CC1 [Example 4, 1-(2-methoxy-phenyl)-4-[4-(4-tetrazol-2-ylmethyl-phenoxy)-butyl]-piperazine] | 75.9 |
| COc1ccccc1N1CCN(CCCCOc2cccc(Cn3cncn3)c2)CC1 [Example 6, 1-(2-methoxy-phenyl)-4-[4-(3-[1,2,4]triazol-1-ylmethyl-phenoxy)-butyl]-piperazine hydrochloride] | 50.1 |
| COc1ccccc1N1CCN(CCCCOc2cccc(Cn3ncnn3)c2)CC1 [Example 8, 1-(2-methoxy-phenyl)-4-[4-(3-tetrazol-2-ylmethyl-phenoxy)-butyl]-piperazine hydrochloride] | 81.6 |
| COc1ccccc1N1CCN(CCCCOc2ccc(Cn3cnc4ccccc43)cc2)CC1 [Example 9, 1-(4-{4-[4-(2-methoxy-phenyl)-piperazin-1-yl]-butoxy}-benzyl)-1H-benzoimidazole] | 52.2 |
| COc1ccccc1N1CCN(CCCCOc2ccc(Cn3ccnc3C)cc2)CC1 [Example 10, 1-(2-Methoxy-phenyl)-4-{4-[4-(2-methyl-imidazol-1-ylmethyl)-phenoxy]-butyl}-piperazine] | 71.8 |
| COc1ccccc1N1CCN(CCCCOc2ccc(Cn3ncc4ccccc43)cc2)CC1 [Example 13, 1-(4-{4-[4-(2-Methoxy-phenyl)-piperazin-1-yl]-butoxy}-benzyl)-1H-indazole] | 50.4 |
| COc1ccccc1N1CCN(CCCCOc2ccc(Cn3nnc4ccccc43)cc2)CC1 [Example 14, 1-(4-{4-[4-(2-Methoxy-phenyl)-piperazin-1-yl]-butoxy}-benzyl)-1H-benzotriazole] | 51.1 |
| COc1ccccc1N1CCN(CCCCOc2ccc(Cn3nnc(-c4ccccc4)n3)cc2)CC1 [Example 15, 1-(2-methoxy-phenyl)-4-{4-[4-(5-phenyl-tetrazol-2-ylmethyl)-phenoxy]-butyl}-piperazine] | 23.5 |
| COc1ccccc1N1CCN(CCCCOc2ccc(Cn3nnnc3-c3ccccc3)cc2)CC1 [Example 16, 1-(2-methoxy-phenyl)-4-{4-[4-(5-phenyl-tetrazol-1-ylmethyl)-phenoxy]-butyl}-piperazine] | 62.5 |
| COc1ccccc1N1CCN(CCCCOc2ccc(Cn3nnc(C)n3)cc2)CC1 [Example 17, 1-(2-methoxy-phenyl)-4-{4-[4-(5-methyl-tetrazol-2-ylmethyl)-phenoxy]-butyl}-piperazine] | 56.4 |
| COc1ccccc1N1CCN(CCCCOc2ccc(Cn3nnnc3C)cc2)CC1 [Example 18, 1-(2-methoxy-phenyl)-4-{4-[4-(5-methyl-tetrazol-1-ylmethyl)-phenoxy]-butyl}-piperazine] | 69.5 |
| COc1ccccc1N1CCN(CCCCOc2ccc(CNc3nccs3)cc2)CC1 [Example 22, (4-{4-[4-(2-methoxy-phenyl)-piperazin-1-yl]-butoxy}-benzyl)-thiazol-2-yl-amine] | 53.4 |
| Clc1ccccc1N1CCN(CCCCOc2ccc(Cn3cncn3)cc2)CC1 [Example 23, 1-(2-chloro-phenyl)-4-[4-(4-[1,2,4]triazol-1-ylmethyl-phenoxy)-butyl]-piperazine] | 17.2 |
| COc1ccccc1N1CCN(CCCCOc2cccc(Cn3ccnn3)c2)CC1 [Example 25, 1-(2-Methoxy-phenyl)-4-[4-(3-[1,2,3]triazol-1-ylmethyl-phenoxy)-butyl]-piperazine] | 45.2 |
| COc1ccccc1N1CCN(CCCCOc2cccc(Cn3nnc(C)n3)c2)CC1 [Example 26, 1-(2-Methoxy-phenyl)-4-{4-[3-(5-methyl-tetrazol-2-ylmethyl)-phenoxy]-butyl}-piperazine] | 47 |
| COc1ccccc1N1CCN(CCCCOc2cccc(Cn3nnnc3C)c2)CC1 [Example 27, 1-(2-methoxy-phenyl)-4-{4-[3-(5-methyl-tetrazol-1-ylmethyl)-phenoxy]-butyl}-piperazine] | 40.9 |
| COc1ccccc1N1CCN(CCCCOc2cccc(CN3CCOCC3)c2)CC1 [Example 29, 4-(3-{4-[4-(2-methoxy-phenyl)-piperazin-1-yl]-butoxy}-benzyl)-morpholine] | 45.8 |
| COc1ccccc1N1CCN(CCCCOc2ccc(Cn3cnc(Cl)c3Cl)cc2)CC1 [Example 30, 1-{4-[4-(4,5-dichloro-imidazol-1-ylmethyl)-phenoxy]-butyl}-4-(2-methoxy-phenyl)-piperazine] | 38.3 |
| Clc1ccccc1N1CCN(CCCCOc2ccc(Cn3ncnn3)cc2)CC1 [Example 31, 1-(2-chloro-phenyl)-4-[4-(4-tetrazol-2-ylmethyl-phenoxy)-butyl]-piperazine] | 30.3 |
| CN1CCN(Cc2ccc(OCCCCN3CCN(c4ccccc4Cl)CC3)cc2)CC1 [Example 35] | 73.3 |
| Cc1nnnn1Cc1ccc(OCCCCN2CCN(c3cccc(Cl)c3Cl)CC2)cc1 [Example 37, 1-(2,3-Dichloro-phenyl)-4-{4-[4-(5-methyl-tetrazol-1-ylmethyl)-phenoxy]-butyl}-piperazine] | 24.8 |
| Cc1nnn(Cc2ccc(OCCCCN3CCN(c4cccc(Cl)c4Cl)CC3)cc2)n1 [Example 38, 1-(2,3-Dichloro-phenyl)-4-{4-[4-(5-methyl-tetrazol-2-ylmethyl)-phenoxy]-butyl}-piperazine] | 29.4 |
| Clc1ccccc1N1CCN(CCCCOc2ccc(Cn3ccnn3)cc2)CC1 [Example 42, 1-(2-chloro-phenyl)-4-[4-(4-[1,2,3]triazol-1-ylmethyl-phenoxy)-butyl]-piperazine] | 36.2 |
| COc1ccccc1N1CCN(CCCCOc2ccc(CNc3nncs3)cc2)CC1 [Example 43, (4-{4-[4-(2-Methoxy-phenyl)-piperazin-1-yl]-butoxy}-benzyl)-[1,3,4]thiadiazol-2-yl-amine] | 95.6 |
| Clc1cccc(N2CCN(CCCCOc3ccc(Cn4ccnn4)cc3)CC2)c1Cl [Example 44, 1-(2,3-dichloro-phenyl)-4-[4-(4-[1,2,3]triazol-1-ylmethyl-phenoxy)-butyl]-piperazine] | 17.4 |
| COc1ccccc1N1CCN(CCCCOc2ccc(CNc3cc(C)on3)cc2)CC1 [Example 45, (4-{4-[4-(2-Methoxy-phenyl)-piperazin-1-yl]-butoxy}-benzyl)-(5-methyl-isoxazol-3-yl)-amine] | 73.8 |
| COc1ccccc1N1CCN(CCCCOc2ccc(CNc3cc(C)no3)cc2)CC1 [Example 46, (4-{4-[4-(2-methoxy-phenyl)-piperazin-1-yl]-butoxy}-benzyl)-(3-methyl-isoxazol-5-yl)-amine] | 64.6 |
| COc1ccccc1N1CCN(CCCCOc2ccc(CCn3nnnc3C)cc2)CC1 [Example 53, 1-(2-Methoxy-phenyl)-4-(4-{4-[2-(5-methyl-tetrazol-1-yl)-ethyl]-phenoxy}-butyl)-piperazine] | 46 |
| Clc1ccccc1N1CCN(CCCCOc2ccc(Cn3nccn3)cc2)CC1 [Example 56, 1-(2-chloro-phenyl)-4-[4-(4-[1,2,3]triazol-2-ylmethyl-phenoxy)-butyl]-piperazine] | 24.3 |

Source: patent US8772299B2, “Phenyl piperazine compounds, pharmaceutical composition including the same and use thereof” (SK Biopharmaceuticals Co., Ltd., priority 2008, dated 2014)
